Measurements taken from patent publication US5480905A, “Benzodioxane derivatives” (Chugai Seiyaku Kabushiki Kaisha, priority 1991, dated 1996).
Entries after “also recorded” stand apart in the source; their conditions may differ. Like-named read-outs stand apart in the source and are kept apart here. One block for each compound: values may come before it.

Columns and labels:
S.D. line male rats [1] = assay: Antidepressant effect, compelled swim test (Porsolt), time over which rats remain motionless; format: in vivo, rat; conditions: peroral 20 mg/kg; for inhibition in vivo at 20 mg/kg: Rattus norvegicus, po, 0.5 h, 30 min before swim, read-out: Antidepressant effect, Efficacy
Protocol: An antidepression test was conducted in accordance with the method of Porsolt et al. (Europ. J. Pharmacol., 47, 379-391, 1978). Stated more specifically, 7-wk old S.D. line male rats were placed in a glass cylinder (18 cm^.phi. ×40 cm^H) for 15 min. The cylinder was filled with water (25° C.) to a depth of 15 cm. Thereafter, the rats were placed in a hot environment (32° C.) for 15 min before they were returned to the cage. Twenty-four hours later, the rats were compelled again to swim in the same cylinder for 5 min and the total time over which the rats remained motionless was measured. A test drug was administered perorally to each animal 30 min before it was compelled to swim for 5 min. Antidepressant agents are known to be capable of specifically reducing the time over which the rats would remain motionless (Psyehopharmaeol., 83, 1-16, 1984, and ibid., 94, 147-160, 1988). The antidepressant effect was calculated by the following formula: [formula]
(§1) The procedure of Test Examples 2 and 3 were repeated except that test compounds were administered perorally in a dose of 10 mg/kg.
(§2) The procedures of Test Example 2 and 3 were repeated, except that test compounds were administered perorally in a dose of 20 mg/kg to check the longevity of their antianxiety and antidepressant effects for 0.5, 2 and 4 h.

S.D. line male rats [2] = assay: Antianxiety effect, water drinking under punishment (Vogel); format: in vivo, rat; design: Antianxiety effect / Antianxiety effect, longevity: unit not given here; conditions: peroral 20 mg/kg; for change in vivo at 20 mg/kg: Rattus norvegicus, po, read-out: Antianxiety effect, Efficacy
Protocol: Antianxiety test was conducted in accordance with a method adapted from the method of Vogel et al. (Psychopharmacol., 21, 1-7, 1971). Stated more specifically, S.D. line male rats weighing 250-300 g were entirely kept from water for 24 h and then placed in a concrete experimental box. […] The bottom of the box was made of a stainless steel grid, from which electric shock (0.2 mA, 0.5 sec) could be applied to the limbs of rats. The test schedule was as follows: first, the rats were acclimatized to the experimental box and trained for drinking water; this was done for 3 min without electric shock. The quantity of water drunk by the rats was then measured (under non-punishment). Then, the rats were kept from drinking water for 24 h. Thereafter, the quantity of water drunk by each rat was measured (before administration of test compound) under such conditions that an electric shock was applied each time a rat drank one water drop (under punishment).Thirty minutes later, a test drug was administered perorally and after an additional 20 min, the quantity of water drunk by each rat was again measured under punishment (after administration of test compound). The quantity of water drunk by rats will decrease under punishment but it is known that the initial level can be restored by administering an antianxiety agent.
The antianxiety effect of a test compound was calculated by the following formula: [formula]
as §1, §2

[3] = test system: apomorphine induced stereotypic behavior; assay: Antidopamine action, apomorphine induced stereotypic behavior; format: in vivo, rat; conditions: for Apomorphine Induced Stereotypic Behavior, sum of scores: maximum of 24
Protocol: Seven-week old male S.D. line rats were administered a test drug perorally and after the passage of 30 min, the dopamine agonist apomorphine was injected subcutaneously in an amount of 0.5 mg/kg. For the subsequent 5-30 min period, the intensity of stereotypic behavior that was induced in the rats by apomorphine was measured six times at 5-min intervals by a scoring method and the sum of the scores was determined (for a maximum of 24).

[4] = in vivo; cited from earlier work
[5] = test system: intracerebral serotonin 2 receptor; conditions: continuous administration; cited from earlier work
S.D. line male rats [6] = assay: Sedative action, amount of spontaneous movement (Animex); format: in vivo, rat; conditions: for Amount of Spontaneous Movement: control 405.2 ± 47.7
Protocol: Seven-week old male S.D. line rats were administered a test drug perorally and after the passage of 30 min, the amount of spontaneous movement of the rats was measured for 10 min by means of Animex.

serotonin 2 receptor = target: T1, serotonin 2 receptor (Rattus norvegicus, UniProt P14842); assay: Serotonin 2 receptor binding experiment (3H-ketancerine); conditions: rat cortex and hippocampal tissue; 0.5 nM 3H-ketancerine; IC50 in M; read-out: -logIC50 5-HT2 (converted)
T1 construct: the cortex and hippocampal tissue were extracted from the brain; from tissue; host or cells: brain cortex and hippocampus of 7-week-old male S.D. rats, washed membrane homogenate
T1 sequence (P14842 whole entry): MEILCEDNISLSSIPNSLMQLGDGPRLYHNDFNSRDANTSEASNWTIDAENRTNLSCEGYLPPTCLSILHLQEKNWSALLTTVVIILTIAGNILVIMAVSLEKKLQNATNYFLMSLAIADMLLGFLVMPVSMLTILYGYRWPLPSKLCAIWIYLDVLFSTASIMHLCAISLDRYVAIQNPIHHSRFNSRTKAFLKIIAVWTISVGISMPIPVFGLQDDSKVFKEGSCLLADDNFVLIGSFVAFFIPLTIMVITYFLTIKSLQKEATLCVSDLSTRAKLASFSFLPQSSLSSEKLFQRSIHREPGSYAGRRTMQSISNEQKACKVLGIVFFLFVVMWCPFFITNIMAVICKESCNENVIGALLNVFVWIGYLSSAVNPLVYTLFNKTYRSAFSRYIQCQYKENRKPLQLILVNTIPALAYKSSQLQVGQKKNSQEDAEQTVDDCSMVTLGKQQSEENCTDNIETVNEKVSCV
Protocol: (§3) Affinity for intracerebral serotonin 1A and serotonin 2 receptor was checked in accordance with the method of Hall et al. (J. Neurochem., 44, 1685-1695, 1985) and the method of Leysen et al. (Mol. Pharmacol., 21, 301-314, 1982).
(§4) Stated more specifically, the cortex and hippocampal tissue were extracted from the brain of 7-wk old S.D. line male rats, mixed with 20 volumes of Tris-HCl buffer (50 mM, pH 7.7) and homogenized with a Teflon homogenizer. Thereafter, the homogenate was centrifuged at 39800×g for 20 min and the supernatant was discarded. Forty volumes of a buffer were added to the precipitate and the mixture was homogenized with a Polytron homogenizer, with the homogenate being centrifuged under the same condition as set forth above. The same procedure was repeated two more times and the final precipitate was homogenized with 40 volumes of a buffer; thereafter, the homogenate was stored at least overnight at -80° C. On the day when binding experiments were to be conducted, the homogenate was thawed at room temperature and incubated at 37° C. for 20 min to remove the endogenous serotonin.
(§5) Thereafter, centrifugation was conducted at 39800×g for 20 min and 40 volumes of a buffer were added to the precipitate, followed by homogenization. This procedure was repeated three times; to the final precipitate, a buffer was added in 65 volumes for the case of serotonin 1A receptor and in 80 volumes for the case of serotonin 2 receptor and the mixture was homogenized in preparation for the binding experiments that are described below. All procedures of experimentation except storage in a frozen state and thawing at room temperature were conducted at 4° C. or below.
A reaction solution containing 0.5 nM (final concentration) of ^3 H-ketancerine and 500 μl of brain homogenate in 1.0 ml (final volume) of a buffer was incubated at 30° C. for 30 min. Subsequent procedures were the same as in the serotonin 1A receptor binding experiment and IC50 (M) was determined accordingly. To determine the amount of specific binding, the amount of binding in the presence of excess unlabelled methysergide ([…]) was subtracted from the total amount of binding.

serotonin 1A receptor = target: T2, serotonin 1A receptor (Rattus norvegicus, UniProt P19327); assay: Serotonin 1A receptor binding experiment (3H-8-OH-DPAT); conditions: rat cortex and hippocampal tissue, 0.5 nM 3H-8-OH-DPAT, IC50 in M
T2 construct: the cortex and hippocampal tissue were extracted from the brain; from tissue; host or cells: brain cortex and hippocampus of 7-week-old male S.D. rats, washed membrane homogenate
T2 sequence (P19327 1-422): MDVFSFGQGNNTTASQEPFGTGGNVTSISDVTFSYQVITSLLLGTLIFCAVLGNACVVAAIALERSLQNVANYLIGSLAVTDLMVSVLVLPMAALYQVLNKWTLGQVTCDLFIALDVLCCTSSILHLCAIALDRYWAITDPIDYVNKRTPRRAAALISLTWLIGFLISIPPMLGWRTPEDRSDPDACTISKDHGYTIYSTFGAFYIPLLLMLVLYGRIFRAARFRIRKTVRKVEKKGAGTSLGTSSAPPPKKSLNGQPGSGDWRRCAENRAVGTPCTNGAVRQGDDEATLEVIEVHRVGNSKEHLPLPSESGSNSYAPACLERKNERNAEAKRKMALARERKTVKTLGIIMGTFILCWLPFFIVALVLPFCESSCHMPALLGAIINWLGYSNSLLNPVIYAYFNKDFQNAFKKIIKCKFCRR
Protocol: as §3, §4, §5
A reaction solution containing 0.5 nM (final concentration) of 3H-8-hydroxy-2-(di-n-propylamino)tetralin (8-OH-DPAT), […] and 500 μl of brain homogenate in 1.0 ml (final volume) of a buffer was incubated at 25° C. for 30 min. Thereafter, the reaction solution was filtered by rapid passage through a glass filler. The filter was washed rapidly with an ice-cooled buffer (3 ml) three times, put into a scintillation vial together with a scintillation cocktail, and left to stand overnight at 4° C. On the next day, the vial was agitated well and measurements were conducted with a scintillation counter. To determine the amount of specific binding, the amount of binding in the presence of excess unlabeled serotonin (10 μM) was subtracted from the total amount of binding. As an index for the affinity of a test compound for either receptor, the concentration at which the specific binding of ^3 H-DPAT was inhibited by 50% (IC50, M) was determined using computer software EBDA/LIGAND (Biosoft).

SMILES: O=C1CC2(CCCC2)CC(=O)N1CCCCN1CCN(c2ncccn2)CC1 [Buspirone]
inhibition in vivo at 20 mg/kg (S.D. line male rats [1]): -25.2 ± 3.9%
change in vivo at 20 mg/kg (S.D. line male rats [2]): 37.5 ± 4.7%
Apomorphine Induced Stereotypic Behavior, sum of scores ([3]; 10 mg/kg peroral, control 14.4 ± 0.9): 10.3
Apomorphine Induced Stereotypic Behavior, sum of scores ([3]; 20 mg/kg peroral, control 14.4 ± 0.9 (Comp. 1: 16.0 ± 1.1)): 0.7
Apomorphine Induced Stereotypic Behavior, sum of scores ([3]; 40 mg/kg peroral, control 14.4 ± 0.9): 0.2
Antidopamine action ([3]; peroral, apomorphine 0.5 mg/kg s.c.): stereotypic behavior induced by apomorphine was intensely compelled

SMILES: CC1(C)CC(=O)N(CCCCN2CCN(c3ncccn3)CC2)C(=O)C1 [Gepirone]
Antianxiety/antidepressant action (words, background) [4]: only weak antidepressant and antianxiety effects; also recorded: both antianxiety and antidepressant effects
Side effects (words, background) [4]: either lower ultromotivity (probably due to the dopamine antagonistic action) or serotonin syndrome

SMILES: O=C1c2ccccc2S(=O)(=O)N1CCCCN1CCN(c2ncccn2)CC1 [Ipsapirone]
Antianxiety/antidepressant action (words, background) [4]: only weak antidepressant and antianxiety effects; also recorded: both antianxiety and antidepressant effects
Side effects (words, background) [4]: either lower ultromotivity (probably due to the dopamine antagonistic action) or serotonin syndrome
intracerebral serotonin 2 receptor (words, background) [5]: decrease in the intracerebral serotonin 2 receptor

IC50 (serotonin 2 receptor): > 1000 nM
IC50 (serotonin 1A receptor; read-out: -logIC50 5-HT1A (converted)): 36.3 nM
SMILES: O=C1CC2(CCCC2)CC(=O)N1CCNCC1COc2ccccc2O1 (stereo not drawn) [MDL-73005, reference compound]
inhibition in vivo at 20 mg/kg (S.D. line male rats [1]): 28.3 ± 10.9%
Antidepressant effect (S.D. line male rats [1]): extremely weak antidepressant effect
Amount of Spontaneous Movement (S.D. line male rats [6]; 20 mg/kg peroral): 395.8 Counts/10 min
Amount of Spontaneous Movement (S.D. line male rats [6]; 40 mg/kg peroral): 331.5 Counts/10 min
Amount of Spontaneous Movement (S.D. line male rats [6]; 60 mg/kg peroral): 335.0 Counts/10 min
Sedative action / spontaneous movement (S.D. line male rats [6]; peroral 20-60 mg/kg): no appreciable sedative action
change in vivo at 20 mg/kg (S.D. line male rats [2]): 67.6 ± 5.5%
Antianxiety effect, longevity (S.D. line male rats [2]; 0.5 h after administration): 44.9
Antianxiety effect, longevity (S.D. line male rats [2]; 2.0 h after administration): 17.0
Antianxiety effect, longevity (S.D. line male rats [2]; 4.0 h after administration): 8.1

SMILES: O=C1C2C3CCC(C3)C2C(=O)N1CCCCN1CCN(c2ncccn2)CC1 (stereo not drawn) [SM-3997, reference compound]
inhibition in vivo at 20 mg/kg (S.D. line male rats [1]): -10.5 ± 10.6%
change in vivo at 20 mg/kg (S.D. line male rats [2]): 48.5 ± 15.8%
IC50 (serotonin 2 receptor): 550 nM
IC50 (serotonin 1A receptor; -logIC50 5-HT1A): 31.6 nM
